# From patent publication US6706663B2, “Herbicidal 3-heterocyclic substituted benzisothiazole and benzisoxazole compounds” (Wyeth, priority 2000, dated 2004)
# Columns and labels:
# SETVI (Setaria viridis) [1] = assay: Postemergence herbicidal evaluation; format: in vivo, (L.) Beau; details: for SETVI herbicidal rating: postemergence
# Summary of the method: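 Ratings use a 0-9 visual scale covering stand, vigor, malformation, size, chlorosis and appearance versus a control, scored 4-5 weeks post-spray. Roughly two-week-old seedlings received about 0.0040-1.000 kg/ha active, applied in 50/50 acetone/water with 0.5% TWEEN 20. Multiple tests per compound were averaged.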
# ORYSAT (Rice, Tebonnet) [2] = assay: Postemergence herbicidal evaluation; format: in vivo, Oryza sativa, (L.) Tebonnet; details: for ORYSAT herbicidal rating: postemergence
# Summary of the method: (§1)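 Visual 0–9 injury scores versus control plants, covering stand, vigour, malformation, size, chlorosis and general appearance, taken four to five weeks post-spray and averaged over replicate tests. Plants were sprayed at roughly two weeks old and held on greenhouse benches.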
# [3] = tested on: TRZAWR (Wheat, Winter, cv Riband); assay: Postemergence herbicidal evaluation; format: in vivo, Triticum aestivum; details: for TRZAWR herbicidal rating: postemergence
# Summary of the method: as §1
# [4] = tested on: ABUTH (Abutilon theophrasti); assay: Preemergence herbicidal evaluation; format: in vivo, Medic.; details: rated 4-5 weeks after treatment
# [5] = tested on: ECHCG (Echinochloa crus-galli); assay: Preemergence herbicidal evaluation; format: in vivo, (L.) Beau; details: rated 4-5 weeks after treatment
# Summary of the method: (§2)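 Rating 0–9, visual, vs control; 4–5 wk after spraying seeded cups with compound in aq. acetone; conventional greenhouse care.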
# SETVI (Setaria viridis) [6] = assay: Preemergence herbicidal evaluation; format: in vivo, (L.) Beau; details: rated 4-5 weeks after treatment
# Summary of the method: as §2
# [7] = tested on: MOOVA (Monochoria vaginalis); assay: Flooded paddy, preemergence weed control; format: in vivo, Presl.; details: rated 3-4 weeks after treatment, 0-9 rating scale
# Summary of the method: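 Greenhouse paddy test, preemergence. Seeds planted in the top 0.5 cm of silt loam soil, which remained flooded at 1.5–3 cm depth. Scored 0-9 by visual comparison with control.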
# ORYSAT (Rice, Tebonnet) [8] = assay: Flooded paddy, post-transplant rice tolerance; format: in vivo, Oryza sativa, (L.) Tebonnet; details: flooded paddy, post-transplant rice, rated 3-4 weeks after treatment, 0-9 rating scale
# Summary of the method: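 Scores (0-9) reflect visual injury relative to untreated plants in flooded silt loam. Each pot held two transplanted ten-day-old seedlings under 1.5 to 3 cm standing water in the greenhouse.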
Molecule,"herbicidal rating, MOOVA ([7]; rate 0.0080 kg/ha)","herbicidal rating, MOOVA ([7]; rate 0.0320 kg/ha)","herbicidal rating, MOOVA ([7]; rate 0.1250 kg/ha)","herbicidal rating, ORYSAT (rice tolerance) (ORYSAT (Rice, Tebonnet) [8]; rate 0.0320 kg/ha)","herbicidal rating, ORYSAT (rice tolerance) (ORYSAT (Rice, Tebonnet) [8]; rate 0.1250 kg/ha)","Postemergence herbicidal rating, SETVI (SETVI (Setaria viridis) [1]; rate 0.0320 kg/ha)","Postemergence herbicidal rating, SETVI (SETVI (Setaria viridis) [1]; rate 0.0620 kg/ha)","Postemergence herbicidal rating, ORYSAT (ORYSAT (Rice, Tebonnet) [2]; rate 0.0320 kg/ha)","Postemergence herbicidal rating, ORYSAT (ORYSAT (Rice, Tebonnet) [2]; rate 0.0620 kg/ha)","Postemergence herbicidal rating, TRZAWR ([3]; rate 0.0320 kg/ha)","Postemergence herbicidal rating, TRZAWR ([3]; rate 0.0620 kg/ha)",ABUTH preemergence herbicidal rating ([4]; Rate 0.0620 kg/ha),ABUTH preemergence herbicidal rating ([4]; Rate 0.1250 kg/ha),ABUTH preemergence herbicidal rating ([4]; Rate 0.2500 kg/ha),ECHCG preemergence herbicidal rating ([5]; Rate 0.0620 kg/ha),ECHCG preemergence herbicidal rating ([5]; Rate 0.1250 kg/ha),ECHCG preemergence herbicidal rating ([5]; Rate 0.2500 kg/ha),SETVI preemergence herbicidal rating (SETVI (Setaria viridis) [6]; Rate 0.0620 kg/ha),SETVI preemergence herbicidal rating (SETVI (Setaria viridis) [6]; Rate 0.1250 kg/ha),SETVI preemergence herbicidal rating (SETVI (Setaria viridis) [6]; Rate 0.2500 kg/ha),further results
"C[C@@H]1C[C@H](C)OC(c2nsc3cc(F)c(-n4c(=O)cc(C(F)(F)F)n(C)c4=O)cc23)O1 (stereo partly drawn) [Compound 67, 3-[3-[(4R,6S)-4,6-dimethyl-m-dioxan-2-yl]-6-fluoro-1,2-benzisothiazol-5-yl]-1-methyl-6-(trifluoromethyl)uracil]",0.0,9.0,9.0,9.0,9.0,,,,,,,,,,,,,,,,"SETVI herbicidal rating (SETVI (Setaria viridis) [1]; rate 0.0320 kg/ha): 9.0; SETVI herbicidal rating (SETVI (Setaria viridis) [1]; rate 0.0620 kg/ha): 7.0; ORYSAT herbicidal rating (ORYSAT (Rice, Tebonnet) [2]; rate 0.0320 kg/ha): 4.5; ORYSAT herbicidal rating (ORYSAT (Rice, Tebonnet) [2]; rate 0.0620 kg/ha): 5.5; TRZAWR herbicidal rating ([3]; rate 0.0320 kg/ha): 4.0; TRZAWR herbicidal rating ([3]; rate 0.0620 kg/ha): 4.0; Preemergence herbicidal rating ABUTH ([4]; Rate 0.0620 kg/ha): 9.0; Preemergence herbicidal rating ABUTH ([4]; Rate 0.1250 kg/ha): 9.0; Preemergence herbicidal rating ECHCG ([5]; Rate 0.0620 kg/ha): 9.0; Preemergence herbicidal rating ECHCG ([5]; Rate 0.1250 kg/ha): 9.0; Preemergence herbicidal rating SETVI (SETVI (Setaria viridis) [6]; Rate 0.0620 kg/ha): 9.0; Preemergence herbicidal rating SETVI (SETVI (Setaria viridis) [6]; Rate 0.1250 kg/ha): 9.0; herbicidal rating, ORYSAT (rice tolerance) (ORYSAT (Rice, Tebonnet) [8]; rate 0.0080 kg/ha): 5.5"
"Cc1cccnc1-c1nsc2ccc(-n3c(=O)cc(C(F)(F)F)n(C)c3=O)cc12 [Compound 19, 1-methyl-3-[3-(3-methyl-2-pyridyl)-1,2-benzisothiazol-5-yl]-6-(trifluoromethyl)uracil]",4.0,9.0,9.0,6.5,8.0,4.0,6.5,3.3,3.5,4.0,4.3,7.7,9.0,9.0,9.0,9.0,9.0,9.0,9.0,9.0,"herbicidal rating, ORYSAT (rice tolerance) (ORYSAT (Rice, Tebonnet) [8]; rate 0.0080 kg/ha): 2.0"
"Cn1c(C(F)(F)F)cc(=O)n(-c2ccc3snc(-c4cccs4)c3c2)c1=O [Compound 3, 1-methyl-3-[3-(2-thienyl)-1,2-benzisothiazol-5-yl]-6-(trifluoromethyl)uracil]",9.0,9.0,9.0,3.5,5.5,3.0,9.0,3.0,4.0,2.5,4.5,8.5,9.0,9.0,7.5,7.0,9.0,9.0,8.5,9.0,"Postemergence herbicidal rating, SETVI (SETVI (Setaria viridis) [1]; rate 0.1250 kg/ha): 9.0; Postemergence herbicidal rating, ORYSAT (ORYSAT (Rice, Tebonnet) [2]; rate 0.1250 kg/ha): 4.5; Postemergence herbicidal rating, TRZAWR ([3]; rate 0.1250 kg/ha): 5.0; herbicidal rating, ORYSAT (rice tolerance) (ORYSAT (Rice, Tebonnet) [8]; rate 0.0080 kg/ha): 3.0"
"COC(=O)C(C)Oc1ccsc1-c1nsc2ccc(-n3c(=O)cc(C(F)(F)F)n(C)c3=O)cc12 (stereo not shown) [Compound 23, methyl 2-[(2-[5-[3,6-dihydro-3-methyl-2,6-dioxo-4-(trifluoromethyl)-1(2H)-pyrimidinyl]-1,2-benzisothiazol-3-yl]-3-thienyl]oxy]propionate]",,9.0,9.0,0.0,3.0,1.0,1.0,2.5,3.5,2.5,3.5,0.0,0.0,1.0,0.0,0.0,1.0,0.0,0.0,1.0,"Postemergence herbicidal rating, SETVI (SETVI (Setaria viridis) [1]; rate 0.1250 kg/ha): 7.0; Postemergence herbicidal rating, ORYSAT (ORYSAT (Rice, Tebonnet) [2]; rate 0.1250 kg/ha): 5.0; Postemergence herbicidal rating, TRZAWR ([3]; rate 0.1250 kg/ha): 5.0"
"1-methyl-3-[3-(1,3-oxathiolan-2-yl)-1,2-benzisothiazol-5-yl]-6-(trifluoromethyl)uracil S′,S′-dioxide [Compound 32]",,6.0,9.0,,,3.0,6.0,5.0,5.5,5.0,5.5,9.0,9.0,9.0,6.5,9.0,9.0,9.0,9.0,9.0,
"Cc1ccn(-c2nsc3ccc(-n4c(=O)cc(C(F)(F)F)n(C)c4=O)cc23)n1 [Compound 38, 1-methyl-3-[3-(3-methylpyrazol-1-yl)-1,2-benzisothiazol-5-yl]-6-(trifluoromethl)uracil]",3.0,9.0,,,,0.0,3.0,2.5,3.5,3.5,4.0,4.0,4.0,6.0,7.0,9.0,9.0,5.0,9.0,9.0,
"Cn1c(C(F)(F)F)cc(=O)n(-c2ccc3snc(C(SCCO)SCCO)c3c2)c1=O [Compound 33, 1,2-benzisothiazole-3-carboxaldehyde, 5-[3,6-dihydro-3-methyl-2,6-dioxo-4-(trifluoromethyl)-1(2H)-pyrimidinyl]-, 3-[bis(2-hydroxyethyl)dithioacetal]]",,0.0,4.0,,,1.0,4.0,4.0,5.0,4.0,5.0,2.0,9.0,9.0,0.0,0.0,5.0,0.0,0.0,6.0,
